Measured values: patent EP0929311B1, “INHIBITION OF APOPTOSIS USING INTERLEUKIN-1 beta-CONVERTING ENZYME (ICE)/CED-3 FAMILY INHIBITORS” (Idun Pharmaceuticals, Inc., priority 1996, dated 1998)
Residues, ends and D or L forms follow the SMILES beside them. *: point of attachment. Cbz = O=C(OCc1ccccc1)*; CH2F = FC*

System: granulocytes
Experiment: Granulocyte/neutrophil survival in culture, hypodiploid nuclei by propidium iodide flow cytometry
Assay type: cell-based
Conditions: at 48 hours; granulocytes cultured at 37°C, hypodiploid DNA
Description: Whole blood anticoagulated with Acid Citrate Dextrose (ACD) with a ratio of 1:5 ACD to blood was collected (~100 ml).
Using polypropylene plastic ware, neutrophils are isolated as follows: • 30 ml of the whole blood is added to 50 ml polypropylene centrifuge tubes containing 15 ml of 6% Dextran (in Saline). The blood is allowed to sediment for approximately 1 hour at room temperature.
The turbid straw colored layer harvested from the top of the cylinders into 50 ml conical polypropylene tubes. The blood cells were pelleted by centrifugation at 240 xg (Sorvall centrifuge at 1200 rpm) for 12 min. at 4°C with the brake on low. […]
The supernatant was aspirated and the neutrophil pellet resuspended in 4.0 ml cold PBS (w/o Ca, Mg) on ice. 10 µl of the neutrophil cell suspension was diluted with 990 µl of Trypan blue (1:100) and cells counted using a hemacytometer. The cell number and viability were determined. […]
Neutrophils were resuspended in hypotonic fluorochrome solution at a density of 5×10^6 cells/ml. Propidium iodide fluorescence of individual nuclei was evaluated in FL2 and measured on a logarithmic scale while gating on physical parameters in forward and side scatter to exlude cell debris.
At least 10,000 events per sample were collected and the results were evaluated relative to a non-apoptotic neutrophil population. […]

SMILES: COC(=O)C[C@H](NC(=O)[C@H](C)NC(=O)[C@@H](NC(=O)OCc1ccccc1)C(C)C)C(=O)CF [zVADfmk] (Cbz-Val-Ala-Asp(OMe)-CH2F)
- effect on improving granulocyte survival: weak effect
